Test results as given in the NIST ThermoML archive (doi:10.1016/j.jct.2007.04.005).
Numbers after ± are expanded uncertainties.

Experiment: xn = mol fraction of the nth substance listed
Conditions: Liquid, x1 = 1

C1CCCCC1 [cyclohexane] + CCCCCCCCC
mass density (298.15 K, 100 kPa): 773.8 ± 0.5 kg/m3
mass density (298.15 K, 101 kPa): 773.8 ± 0.49 kg/m3
mass density (298.15 K, 2130 kPa): 775.5 ± 0.6 kg/m3
mass density (298.15 K, 4150 kPa): 777.2 ± 0.6 kg/m3
mass density (298.15 K, 6180 kPa): 778.8 ± 0.7 kg/m3
mass density (298.15 K, 8210 kPa): 780.4 ± 0.8 kg/m3
mass density (298.15 K, 10230 kPa): 782 ± 0.8 kg/m3
mass density (298.15 K, 11250 kPa): 782.8 ± 0.9 kg/m3
mass density (298.15 K, 12260 kPa): 783.5 ± 0.9 kg/m3
mass density (298.15 K, 14290 kPa): 785 ± 1 kg/m3
mass density (298.15 K, 16310 kPa): 786.5 ± 1 kg/m3
mass density (298.15 K, 18340 kPa): 788 ± 1.1 kg/m3
mass density (298.15 K, 20370 kPa): 789.4 ± 1.1 kg/m3
mass density (298.15 K, 22390 kPa): 790.9 ± 1.2 kg/m3
mass density (298.15 K, 24420 kPa): 792.2 ± 1.3 kg/m3
mass density (298.15 K, 26450 kPa): 793.6 ± 1.3 kg/m3
mass density (298.15 K, 28470 kPa): 794.9 ± 1.4 kg/m3
mass density (298.15 K, 29490 kPa): 795.6 ± 1.4 kg/m3
mass density (298.15 K, 30500 kPa): 796.1 ± 1.4 kg/m3
mass density (298.15 K, 32530 kPa): 797.5 ± 1.5 kg/m3
mass density (298.15 K, 34550 kPa): 798.7 ± 1.5 kg/m3
mass density (298.15 K, 36580 kPa): 800 ± 1.6 kg/m3
mass density (298.15 K, 38600 kPa): 801.2 ± 1.6 kg/m3
mass density (298.15 K, 39620 kPa): 801.7 ± 1.7 kg/m3
mass density (308.15 K, 100 kPa): 764.4 ± 0.5 kg/m3
mass density (308.15 K, 101 kPa): 764.38 ± 0.5 kg/m3
mass density (308.15 K, 2130 kPa): 766.2 ± 0.6 kg/m3
mass density (308.15 K, 4150 kPa): 767.9 ± 0.7 kg/m3
mass density (308.15 K, 6180 kPa): 769.7 ± 0.7 kg/m3
mass density (308.15 K, 8210 kPa): 771.4 ± 0.8 kg/m3
mass density (308.15 K, 10230 kPa): 773.1 ± 0.9 kg/m3
mass density (308.15 K, 11250 kPa): 773.9 ± 0.9 kg/m3
mass density (308.15 K, 12260 kPa): 774.7 ± 0.9 kg/m3
mass density (308.15 K, 14290 kPa): 776.4 ± 1 kg/m3
mass density (308.15 K, 16310 kPa): 777.9 ± 1.1 kg/m3
mass density (308.15 K, 18340 kPa): 779.5 ± 1.1 kg/m3
mass density (308.15 K, 20370 kPa): 781 ± 1.2 kg/m3
mass density (308.15 K, 22390 kPa): 782.5 ± 1.2 kg/m3
mass density (308.15 K, 24420 kPa): 784 ± 1.3 kg/m3
mass density (308.15 K, 26450 kPa): 785.5 ± 1.4 kg/m3
mass density (308.15 K, 28470 kPa): 786.9 ± 1.4 kg/m3
mass density (308.15 K, 29490 kPa): 787.6 ± 1.4 kg/m3
mass density (308.15 K, 30500 kPa): 788.3 ± 1.5 kg/m3
mass density (308.15 K, 32530 kPa): 789.7 ± 1.5 kg/m3
mass density (308.15 K, 34550 kPa): 791 ± 1.6 kg/m3
mass density (308.15 K, 36580 kPa): 792.4 ± 1.6 kg/m3
mass density (308.15 K, 38600 kPa): 793.7 ± 1.7 kg/m3
mass density (308.15 K, 39620 kPa): 794.3 ± 1.7 kg/m3
mass density (318.15 K, 100 kPa): 754.8 ± 0.6 kg/m3
mass density (318.15 K, 101 kPa): 754.99 ± 0.52 kg/m3
mass density (318.15 K, 2130 kPa): 756.7 ± 0.6 kg/m3
mass density (318.15 K, 4150 kPa): 758.7 ± 0.7 kg/m3
mass density (318.15 K, 6180 kPa): 760.6 ± 0.8 kg/m3
mass density (318.15 K, 8210 kPa): 762.4 ± 0.8 kg/m3
mass density (318.15 K, 10230 kPa): 764.2 ± 0.9 kg/m3
mass density (318.15 K, 11250 kPa): 765.1 ± 0.9 kg/m3
mass density (318.15 K, 12260 kPa): 766 ± 1 kg/m3
mass density (318.15 K, 14290 kPa): 767.7 ± 1 kg/m3
mass density (318.15 K, 16310 kPa): 769.4 ± 1.1 kg/m3
mass density (318.15 K, 18340 kPa): 771.1 ± 1.2 kg/m3
mass density (318.15 K, 20370 kPa): 772.7 ± 1.2 kg/m3
mass density (318.15 K, 22390 kPa): 774.3 ± 1.3 kg/m3
mass density (318.15 K, 24420 kPa): 775.8 ± 1.3 kg/m3
mass density (318.15 K, 26450 kPa): 777.3 ± 1.4 kg/m3
mass density (318.15 K, 28470 kPa): 778.8 ± 1.5 kg/m3
mass density (318.15 K, 29490 kPa): 779.6 ± 1.5 kg/m3
mass density (318.15 K, 30500 kPa): 780.3 ± 1.5 kg/m3
mass density (318.15 K, 32530 kPa): 781.7 ± 1.6 kg/m3
mass density (318.15 K, 34550 kPa): 783.2 ± 1.6 kg/m3
mass density (318.15 K, 36580 kPa): 784.6 ± 1.7 kg/m3
mass density (318.15 K, 38600 kPa): 786 ± 1.8 kg/m3
mass density (318.15 K, 39620 kPa): 786.7 ± 1.8 kg/m3
mass density (328.15 K, 100 kPa): 745.4 ± 0.5 kg/m3
mass density (328.15 K, 101 kPa): 745.55 ± 0.53 kg/m3
mass density (328.15 K, 2130 kPa): 746.6 ± 0.6 kg/m3
mass density (328.15 K, 4150 kPa): 749.6 ± 0.7 kg/m3
mass density (328.15 K, 6180 kPa): 751.6 ± 0.8 kg/m3
mass density (328.15 K, 8210 kPa): 753.6 ± 0.9 kg/m3
mass density (328.15 K, 10230 kPa): 755.5 ± 0.9 kg/m3
mass density (328.15 K, 11250 kPa): 756.4 ± 1 kg/m3
mass density (328.15 K, 12260 kPa): 757.4 ± 1 kg/m3
mass density (328.15 K, 14290 kPa): 759.2 ± 1.1 kg/m3
mass density (328.15 K, 16310 kPa): 761 ± 1.1 kg/m3
mass density (328.15 K, 18340 kPa): 762.8 ± 1.2 kg/m3
mass density (328.15 K, 20370 kPa): 764.5 ± 1.3 kg/m3
mass density (328.15 K, 22390 kPa): 766.2 ± 1.3 kg/m3
mass density (328.15 K, 24420 kPa): 767.9 ± 1.4 kg/m3
mass density (328.15 K, 26450 kPa): 769.6 ± 1.4 kg/m3
mass density (328.15 K, 28470 kPa): 771.2 ± 1.5 kg/m3
mass density (328.15 K, 29490 kPa): 772 ± 1.5 kg/m3
mass density (328.15 K, 30500 kPa): 772.7 ± 1.6 kg/m3
mass density (328.15 K, 32530 kPa): 774.3 ± 1.6 kg/m3
mass density (328.15 K, 34550 kPa): 775.8 ± 1.7 kg/m3
mass density (328.15 K, 36580 kPa): 777.3 ± 1.7 kg/m3
mass density (328.15 K, 38600 kPa): 778.8 ± 1.8 kg/m3
mass density (328.15 K, 39620 kPa): 779.4 ± 1.8 kg/m3
